Like-named read-outs stand apart in the source and are kept apart here.

The results in this text go back to patent US11279683B2, “Thiophene derivatives as antiviral agents” (ENYO PHARMA, priority 2016, dated 2022).

Assay [1] has as its system H1N1 (influenza A/New Caledonia/20/99). The assay is described as follows: microbe, parasite or virus in culture. The assay is classed as cell-based.
The next assay deals with p62. Briefly: p62 expression measurement. In kind it is cell-based. The text has this:
The autophagy-inducing effect has been assessed by LC3 lipidation assay and by p62 expression measurement.

Where [2] appears, read: Influenza A virus, H1N1, A549, 48 h.

In assay [1] (setting [2]), `O=C(Nc1ccc(Cl)cc1)c1c(NC(=O)C2CCCCC2C(=O)O)sc2ccccc12` (stereo not shown) [Compound 41, 2-[[3-[(4-Chlorophenyl)carbamoyl]benzothiophen-2-yl]carbamoyl]cyclohexane carboxylic acid] came in with an IC50 of 3.53 µM. For the same compound, the “p62 expression*” value in the assay with p62 is given as “down”.

In assay [1] (setting [2]), `O=C(Nc1ccc(Cl)cc1)c1c(NC(=O)C2CCCCC2C(=O)O)sc2cscc12` (stereo not shown) [Compound 42, 2-[[3-[(4-Chlorophenyl)carbamoyl]thieno[3,4-b]thiophen-2-yl]carbamoyl]cyclohexanecarboxylic acid] had an IC50 of 3.08 µM. Moreover, in the assay with p62, the “p62 expression*” value is recorded as “down”.

Regarding `O=C(Nc1ccc(Cl)cc1)c1c(NC(=O)C2CCCCC2C(=O)O)sc2c1CCC2` (stereo not drawn) [Compound 57, 2-[[3-[(4-Chlorophenyl)carbamoyl]-5,6-dihydro-4H-cyclopenta[b]thiophen-2-yl]carbamoyl]cyclohexane-cis-carboxylic acid], the IC50 in assay [1] amounted to 7.18 µM. Besides, the “p62 expression*” value in the assay with p62 was “down”.

`O=C(Nc1ccc(Cl)cc1)c1c(NC(=O)C2CCCCC2C(=O)O)sc2c1CCS2` (stereo not shown) [Compound 40, 2-[[4-[(4-Chlorophenyl)carbamoyl]-2,3-dihydrothieno[2,3-b]thiophen-5-yl]carbamoyl] cyclohexanecarboxylic acid]: the IC50 in assay [1] (setting [2]) is 7.35 µM.
